Assay results taken from patent US9951077B2, “Aminopyridazinone compounds as protein kinase inhibitors” (ETERNITY BIOSCIENCE INC., priority 2014, dated 2018).

Biological target: Btk (Homo sapiens (Human), UniProt Q06187)
Assay: Btk kinase assay (ADP-Glo)
Type: biochemical
Conditions: ATP 1.2 μM, 60 minutes, room temperature; read-out: BTK enzyme IC50
Experimental: The Btk kinase assay was performed using a ADP-Glo Btk kinase assay kit purchased from Promega (Madison, Wis.). The assay was conducted according to the protocols provided in the assay kit. In brief, the enzyme reaction was carried out in the kinase reaction buffer containing Btk (2 ng/μl), ATP (1.2 μM), poly GT peptide (0.3 μM), DTT (40 nM), MnCl2 (1.4 mM), and 1×kinase buffer (included in the kit) in the presence or absence of the tested articles at various concentrations in 384-well plate at room temperature (22±1° C.) for 60 minutes. The final reaction volume for each reaction was 10 μl. Then, 4 μl of ADP-Glo reagent (included in the kit) was added into the reaction and the plate was further incubated for another 40 minutes to terminate the reaction and deplete the remaining ATP. Finally, 10 μl of the kinase detection reagent was added into each reaction to simultaneously convert ADP to ATP and allow the newly synthesized ATP to be measured by a plate-reading luminometer (Victor X5 2030 multilabel reader, PerkinElmer). IC50 value was calculated using appropriate programs in GraphPad Prism by plotting the logarithm of the concentration versus percent inhibition as compared with a vehicle (DMSO) control.

Sequence of Btk (Q06187 whole entry): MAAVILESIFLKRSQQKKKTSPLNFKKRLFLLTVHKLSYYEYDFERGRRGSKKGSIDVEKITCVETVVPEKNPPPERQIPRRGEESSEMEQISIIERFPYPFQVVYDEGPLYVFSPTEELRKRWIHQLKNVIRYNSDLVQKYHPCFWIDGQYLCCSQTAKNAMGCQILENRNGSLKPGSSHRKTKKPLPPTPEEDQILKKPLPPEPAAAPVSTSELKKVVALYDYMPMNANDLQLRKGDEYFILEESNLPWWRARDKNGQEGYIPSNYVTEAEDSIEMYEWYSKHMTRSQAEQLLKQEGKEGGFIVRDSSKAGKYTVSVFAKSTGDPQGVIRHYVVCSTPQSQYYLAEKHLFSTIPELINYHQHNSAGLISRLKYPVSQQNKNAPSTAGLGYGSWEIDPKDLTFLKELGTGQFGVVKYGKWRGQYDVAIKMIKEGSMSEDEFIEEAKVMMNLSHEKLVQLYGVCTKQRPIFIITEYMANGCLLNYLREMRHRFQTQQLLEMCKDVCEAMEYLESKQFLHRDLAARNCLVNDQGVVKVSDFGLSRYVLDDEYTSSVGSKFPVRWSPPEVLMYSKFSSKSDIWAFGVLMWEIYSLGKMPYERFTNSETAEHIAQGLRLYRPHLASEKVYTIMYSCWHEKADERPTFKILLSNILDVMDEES

Row | IC50 [nM] | SMILES
1 | ≤ 10 | CN(C)C/C=C/C(=O)N1CCCC(n2cc(-c3ccc(Oc4cccc(Cl)c4)cc3)c3c(N)n[nH]c(=O)c32)C1 (stereo not shown) [Example 67, 4-amino-3-[4-(3-chlorophenoxy)phenyl]-1-[1-[(E)-4-(dimethylamino)but-2-enoyl]-3-piperidyl]-6H-pyrrolo[2,3-d]pyridazin-7-one]
2 | 10 to 1000 | C=CC(=O)N1CCCC(n2cc(-c3ccc(Oc4cccc(Cl)c4)c(OC)c3)c3c(N)n[nH]c(=O)c32)C1 (stereo not shown) [Example 68, 1-(1-acryloylpiperidin-3-yl)-4-amino-3-(4-(3-chlorophenoxy)-3-methoxyphenyl)-1H-pyrrolo[2,3-d]pyridazin-7(6H)-one]
3 | ≤ 10 | COc1cc(-c2cn(C3CCCN(C(=O)/C=C/CN(C)C)C3)c3c(=O)[nH]nc(N)c23)ccc1Oc1cccc(Cl)c1 (stereo not shown) [Example 69, 4-amino-3-[4-(3-chlorophenoxy)-3-methoxy-phenyl]-1-[1-[(E)-4-(dimethylamino)but-2-enoyl]-3-piperidyl]-6H-pyrrolo[2,3-d]pyridazin-7-one]
4 | 10 to 1000 | C=CC(=O)N1CCC[C@@H](n2cc(-c3ccc(Oc4ccc(Cl)c(Cl)c4)c(OC)c3)c3c(N)n[nH]c(=O)c32)C1 [Example 72, (R)-1-(1-acryloylpiperidin-3-yl)-4-amino-3-(4-(3,4-dichlorophenoxy)-3-methoxyphenyl)-1H-pyrrolo[2,3-d]pyridazin-7(6H)-one]
5 | 10 to 1000 | COc1cc(-c2cn([C@@H]3CCCN(C(=O)/C=C/CN(C)C)C3)c3c(=O)[nH]nc(N)c23)ccc1Oc1ccc(Cl)c(Cl)c1 [Example 73, 4-amino-3-[4-(3,4-dichlorophenoxy)-3-methoxy-phenyl]-1-[(3R)-1-[(E)-4-(dimethylamino)but-2-enoyl]-3-piperidyl]-6H-pyrrolo[2,3-d]pyridazin-7-one]
6 | ≤ 10 | CN(C)C/C=C/C(=O)N1CCC[C@@H](n2cc(-c3ccc(Oc4ccccc4)c(F)c3)c3c(N)n[nH]c(=O)c32)C1 [Example 75, 4-amino-1-[(3R)-1-[(E)-4-(dimethylamino)but-2-enoyl]-3-piperidyl]-3-(3-fluoro-4-phenoxy-phenyl)-6H-pyrrolo[2,3-d]pyridazin-7-one]
7 | 10 to 1000 | C=CC(=O)N1CCC[C@@H](n2cc(-c3ccc(Oc4ccccc4)cc3F)c3c(N)n[nH]c(=O)c32)C1 [Example 76, (R)-1-(1-acryloylpiperidin-3-yl)-4-amino-3-(2-fluoro-4-phenoxyphenyl)-1H-pyrrolo[2,3-d]pyridazin-7(6H)-one]
8 | ≤ 10 | C=CC(=O)N1CCC[C@@H](n2cc(-c3ccc(Oc4c(F)cccc4Cl)cc3)c3c(N)n[nH]c(=O)c32)C1 [Example 78, (R)-1-(1-acryloylpiperidin-3-yl)-4-amino-3-(4-(2-chloro-6-fluorophenoxy)phenyl)-1H-pyrrolo[2,3-d]pyridazin-7(6H)-one]
9 | ≤ 10 | CN(C)C/C=C/C(=O)N1CCC[C@@H](n2cc(-c3ccc(Oc4c(F)cccc4Cl)cc3)c3c(N)n[nH]c(=O)c32)C1 [Example 79, 4-amino-3-[4-(2-chloro-6-fluoro-phenoxy)phenyl]-1-[(3R)-1-[(E)-4-(dimethylamino)but-2-enoyl]-3-piperidyl]-6H-pyrrolo[2,3-d]pyridazin-7-one]
10 | 1000 to 100000 | C=CC(=O)N1CCC[C@@H](n2c(Cl)c(-c3ccc(Oc4ccccc4F)cc3)c3c(N)n[nH]c(=O)c32)C1 [Example 83, (R)-1-(1-acryloylpiperidin-3-yl)-4-amino-2-chloro-3-(4-(2-fluorophenoxy)phenyl)-1H-pyrrolo[2,3-d]pyridazin-7(6H)-one]
11 | 10 to 1000 | N#CN1CCC[C@@H](n2cc(-c3ccc(Oc4c(F)cccc4F)cc3)c3c(N)n[nH]c(=O)c32)C1 [Example 84, (R)-3-(4-amino-3-(4-(2,6-difluorophenoxy)phenyl)-7-oxo-6,7-dihydro-1H-pyrrolo[2,3-d]pyridazin-1-yl)piperidine-1-carbonitrile]
12 | 1000 to 100000 | N#CN1CCC[C@@H](n2c(Cl)c(-c3ccc(Oc4ccccc4F)cc3)c3c(N)n[nH]c(=O)c32)C1 [Example 86, (R)-3-(4-amino-2-chloro-3-(4-(2-fluorophenoxy)phenyl)-7-oxo-6,7-dihydro-1H-pyrrolo[2,3-d]pyridazin-1-yl)piperidine-1-carbonitrile]
13 | ≤ 10 | C=CC(=O)Nc1cccc(-n2cc(-c3ccc(Oc4ccccc4)cc3)c3c(N)n[nH]c(=O)c32)c1 [Example 88, N-(3-(4-amino-7-oxo-3-(4-phenoxyphenyl)-6,7-dihydro-1H-pyrrolo[2,3-d]pyridazin-1-yl)phenyl)acrylamide]
14 | 10 to 1000 | C=CC(=O)Nc1ccc(-n2cc(-c3ccc(Oc4ccccc4)cc3)c3c(N)n[nH]c(=O)c32)cc1 [Example 90, N-(4-(4-amino-7-oxo-3-(4-phenoxyphenyl)-6,7-dihydro-1H-pyrrolo[2,3-d]pyridazin-1-yl)phenyl)acrylamide]
15 | 10 to 1000 | C=CC(=O)Nc1cccc(-n2cc(-c3ccc(Oc4ccccc4F)cc3)c3c(N)n[nH]c(=O)c32)c1 [Example 91, N-(3-(4-amino-3-(4-(2-fluorophenoxy)phenyl)-7-oxo-6,7-dihydro-1H-pyrrolo[2,3-d]pyridazin-1-yl)phenyl)acrylamide]
16 | 10 to 1000 | CC#CC(=O)N1CC[C@@H](n2cc(-c3ccc(Oc4ccccc4F)cc3)c3c(N)n[nH]c(=O)c32)C1 [Example 95, (R)-4-amino-1-(1-(but-2-ynoyl)pyrrolidin-3-yl)-3-(4-(2-fluorophenoxy)phenyl)-1H-pyrrolo[2,3-d]pyridazin-7(6H)-one]

Continued, compound first:

Row | SMILES | IC50 [nM]
17 | C=CC(=O)N1CCC[C@@H](n2cc(-c3ccc(Oc4ccccc4Cl)cc3)c3c(N)n[nH]c(=O)c32)C1 [Example 70, (R)-1-(1-acryloylpiperidin-3-yl)-4-amino-3-(4-(2-chlorophenoxy)phenyl)-1H-pyrrolo[2,3-d]pyridazin-7(6H)-one] | 10 to 1000
18 | CN(C)C/C=C/C(=O)N1CCC[C@@H](n2cc(-c3ccc(Oc4ccccc4Cl)cc3)c3c(N)n[nH]c(=O)c32)C1 [Example 71, 4-amino-3-[4-(2-chlorophenoxy)phenyl]-1-[(3R)-1-[(E)-4-(dimethylamino)but-2-enoyl]-3-piperidyl]-6H-pyrrolo[2,3-d]pyridazin-7-one] | ≤ 10
19 | C=CC(=O)N1CCC[C@@H](n2cc(-c3ccc(Oc4ccccc4)c(F)c3)c3c(N)n[nH]c(=O)c32)C1 [Example 74, (R)-1-(1-acryloylpiperidin-3-yl)-4-amino-3-(3-fluoro-4-phenoxyphenyl)-1H-pyrrolo[2,3-d]pyridazin-7(6H)-one] | 10 to 1000
20 | CN(C)C/C=C/C(=O)N1CCC[C@@H](n2cc(-c3ccc(Oc4ccccc4)cc3F)c3c(N)n[nH]c(=O)c32)C1 [Example 77, 4-amino-1-[(3R)-1-[(E)-4-(dimethylamino)but-2-enoyl]-3-piperidyl]-3-(2-fluoro-4-phenoxy-phenyl)-6H-pyrrolo[2,3-d]pyridazin-7-one] | ≤ 10
21 | C=CC(=O)N1CCC[C@@H](n2c(Cl)c(-c3ccc(Oc4ccccc4)cc3)c3c(N)n[nH]c(=O)c32)C1 [Example 80, (R)-1-(1-acryloylpiperidin-3-yl)-4-amino-2-chloro-3-(4-phenoxyphenyl)-1H-pyrrolo[2,3-d]pyridazin-7(6H)-one] | 10 to 1000
22 | C=CC(=O)N1CCC[C@@H](n2c(F)c(-c3ccc(Oc4ccccc4)cc3)c3c(N)n[nH]c(=O)c32)C1 [Example 81, (R)-1-(1-acryloylpiperidin-3-yl)-4-amino-2-fluoro-3-(4-phenoxyphenyl)-1H-pyrrolo[2,3-d]pyridazin-7(6H)-one] | 10 to 1000
23 | CN(C)C/C=C/C(=O)N1CCC[C@@H](n2c(F)c(-c3ccc(Oc4ccccc4)cc3)c3c(N)n[nH]c(=O)c32)C1 [Example 82, 4-amino-1-[(3R)-1-[(E)-4-(dimethylamino)but-2-enoyl]-3-piperidyl]-2-fluoro-3-(4-phenoxyphenyl)-6H-pyrrolo[2,3-d]pyridazin-7-one] | ≤ 10
24 | N#CN1CCC[C@@H](n2cc(-c3ccc(Oc4ccccc4)c(F)c3)c3c(N)n[nH]c(=O)c32)C1 [Example 85, (R)-3-(4-amino-3-(3-fluoro-4-phenoxyphenyl)-7-oxo-6,7-dihydro-1H-pyrrolo[2,3-d]pyridazin-1-yl)piperidine-1-carbonitrile] | 10 to 1000
25 | N#CN1CCC[C@@H](n2cc(-c3ccc(Oc4ccccc4F)cc3)c3c(N)n[nH]c(=O)c32)C1 [Example 87, (R)-3-(4-amino-3-(4-(2-fluorophenoxy)phenyl)-7-oxo-6,7-dihydro-1H-pyrrolo[2,3-d]pyridazin-1-yl)piperidine-1-carbonitrile] | ≤ 10
26 | C=CC(=O)Nc1cccc(-n2cc(-c3ccc(OC)c(Cl)c3)c3c(N)n[nH]c(=O)c32)c1 [Example 89, N-(3-(4-amino-3-(3-chloro-4-methoxyphenyl)-7-oxo-6,7-dihydro-1H-pyrrolo[2,3-d]pyridazin-1-yl)phenyl)acrylamide] | 10 to 1000
27 | CN(C)C/C=C/C(=O)Nc1cccc(-n2cc(-c3ccc(Oc4ccccc4F)cc3)c3c(N)n[nH]c(=O)c32)c1 [Example 92, (E)-N-[3-[4-amino-3-[4-(2-fluorophenoxy)phenyl]-7-oxo-6H-pyrrolo[2,3-d]pyridazin-1-yl]phenyl]-4-(dimethylamino)but-2-enamide] | 10 to 1000
28 | CC#CC(=O)N1CC[C@@H](n2cc(-c3ccc(Oc4c(F)cccc4Cl)cc3)c3c(N)n[nH]c(=O)c32)C1 [Example 94, (R)-4-amino-1-(1-(but-2-ynoyl)pyrrolidin-3-yl)-3-(4-(2-chloro-6-fluorophenoxy)phenyl)-1H-pyrrolo[2,3-d]pyridazin-7(6H)-one] | 10 to 1000
